According to US11666590B2, “Pharmaceutical composition, methods for treating and uses thereof” (Boehringer Ingelheim International GmbH, priority 2013, dated 2023):

Key:
[1] = Phase III trial of empagliflozin as add-on to existing therapy for 52 weeks in patients with T2DM and renal impairment: eGFR (MDRD) over time; format: in vivo, human; settings: for End-of treatment eGFR Mean / End-of treatment eGFR Mean change from baseline / eGFR at week 52 (in words): week 52
Text: (§1) For the purpose of the present invention, the estimated glomerular filtration rate (eGFR) is derived from the serum creatinine (SCr) value based on the MDRD formula below: eGFR (mL/min/1.73m2)=175×[SCr (μmol/L)/88.4]-1.154×[age]-0.203×[0.742 if patient is female]×[1.212 if patient is of African origin]
A Phase III trial investigated the efficacy and safety of empagliflozin (EMPA) as add-on to existing therapy for 52 weeks in patients with T2DM and RI. Patients with mild RI (eGFR [MDRD equation]≥60 to<90 mL/min/1.73 m^2) received EMPA 10 or 25 mg qd or placebo (PBO). Patients with moderate RI (eGFR≥30 to<60 mL/min/1.73 m^2) received EMPA 25 mg qd or PBO. Patients with severe RI (eGFR[…] to<30 mL/min/1.73 m^2) received EMPA 25 mg qd or PBO.

[2] = Phase III trial of empagliflozin once daily over 12 weeks in hypertensive patients with T2DM: eGFR (MDRD) over time; format: in vivo, human
Procedure: as §1
A Phase III trial investigated the efficacy and safety of empagliflozin (EMPA) administered orally, once daily over 12 weeks in hypertensive patients with T2DM (EMPA 10 or 25 mg, placebo (PBO)). Patients with a systolic blood pressure (SBP) of 130 to 159 mmHg and a diastolic blood pressure (DSP) of 80 to 99 mmHg were included in the trial.

[3] = Phase IIb trial of empagliflozin once daily over 78 weeks in patients with T2DM receiving basal insulin: eGFR (MDRD) over time; format: in vivo, human
Procedure: as §1
A Phase IIb trial investigated the efficacy and safety of empagliflozin (EMPA 10 or 25 mg, placebo (PBO)) administered orally, once daily over 78 weeks in patients with T2DM receiving treatment with basal insulin (glargine, detemir, or NPH insulin only).

[4] = 52 week renal impairment study: urine albumin/creatinine ratio (UACR) by baseline UACR category; format: in vivo, human; settings: for Frequency of patients, last value on-treatment Macroalbuminuria, % / Frequency of patients, last value on-treatment Microalbuminuria, % / Frequency of patients, last value on-treatment Normal, % / Urine albumin-to-creatinine ratio, change from baseline, Mean: week 52; for mean urine albumin/creatinine ratio values (in words): patients with microalbuminuria at baseline
Procedure: In a dedicated 52 week renal impairment study, patients were categorised based on their urine albumin/creatinine ratio (UACR) values at baseline, and 3 categories of patients were distinguished: patients with normal urine albumin/creatinine ratio values (<30 mg/g), patients with microalbuminuria (30 to<300 mg/g) and patients with macroalbuminurea (≥300 mg/g).
Categories for urine albumin-to-creatinine ratio: normal:<30 mg/g, microalbuminuria 30 to<300 mg/g, macroalbuminuria:≥300 mg/g

[5] = metformin on its own, in the diabetic; cited from earlier work
[6] = mild renal impairment, Empa 10 mg qd, 3-week follow up visit
[7] = mild renal impairment, Empa 10 mg qd
[8] = mild renal impairment, Empa 25 mg qd, 3-week follow up visit
[9] = mild renal impairment, Empa 25 mg qd
[10] = moderate renal impairment, Empa 25 mg qd, 3-week follow-up visit
[11] = moderate renal impairment, Empa 25 mg qd
[12] = severe renal impairment, Empa 25 mg qd, 3-week follow-up visit
[13] = severe renal impairment, Empa 25 mg qd
[14] = Empa 10 mg once daily, 2-week follow up visit
[15] = Empa 25 mg once daily, 2-week follow up visit
[16] = T2DM on basal insulin, Empa 10 mg once daily, 4-week follow up visit
[17] = T2DM on basal insulin, Empa 10 mg once daily
[18] = T2DM on basal insulin, Empa 25 mg once daily, 4-week follow up visit
[19] = T2DM on basal insulin, Empa 25 mg once daily
[20] = Empa 10 mg, baseline Macroalbuminuria
[21] = Empa 10 mg, baseline Microalbuminuria
[22] = Empa 10 mg, baseline UACR Normal
[23] = Empa 25 mg, baseline Macroalbuminuria
[24] = Empa 25 mg, baseline Microalbuminuria
[25] = Empa 25 mg, baseline UACR Normal

OC[C@H]1O[C@@H](c2ccc(Cl)c(Cc3ccc(O[C@H]4CCOC4)cc3)c2)[C@H](O)[C@@H](O)[C@@H]1O [Empa, 1-chloro-4-(β-D-glucopyranos-1-yl)-244-((S)-tetrahydrofuran-3-yloxy)-benzylFbenzene]
Follow-up eGFR Mean [1, 6]: 69.84 mL/min/1.73 m^2 | Follow-up eGFR Mean change from baseline [1, 6]: 2.06 mL/min/1.73 m^2 | Baseline eGFR Mean [1, 7]: 68.42 mL/min/1.73 m^2 | End-of treatment eGFR Mean [1, 7]: 68.07 mL/min/1.73 m^2 | End-of treatment eGFR Mean change from baseline [1, 7]: −0.76 mL/min/1.73 m^2 | Follow-up eGFR Mean [1, 8]: 73.38 mL/min/1.73 m^2 | Follow-up eGFR Mean change from baseline [1, 8]: 1.28 mL/min/1.73 m^2 | Baseline eGFR Mean [1, 9]: 72.01 mL/min/1.73 m^2 | End-of treatment eGFR Mean [1, 9]: 66.25 mL/min/1.73 m^2 | End-of treatment eGFR Mean change from baseline [1, 9]: −5.67 mL/min/1.73 m^2 | mean eGFR at follow up (in words) ([1]; mild renal impairment, empagliflozin 10 and 25 mg, 3-week follow up visit): increased to a value slightly above baseline | eGFR at week 52 (in words) ([1]; mild renal impairment, empagliflozin 10 and 25 mg): small decrease in eGFR | Follow-up eGFR Mean [1, 10]: 45.39 mL/min/1.73 m^2 | Follow-up eGFR Mean change from baseline [1, 10]: 1.48 mL/min/1.73 m^2 | Baseline eGFR Mean [1, 11]: 43.84 mL/min/1.73 m^2 | End-of treatment eGFR Mean [1, 11]: 40.58 mL/min/1.73 m^2 | End-of treatment eGFR Mean change from baseline [1, 11]: −3.55 mL/min/1.73 m^2 | mean eGFR at follow-up (in words) ([1]; moderate renal impairment, empagliflozin 25 mg, 3-week follow-up visit): increased to a value slightly above baseline | eGFR at week 52 (in words) ([1]; moderate renal impairment, empagliflozin 25 mg): small decrease in eGFR | Follow-up eGFR Mean [1, 12]: 23.63 mL/min/1.73 m^2 | Follow-up eGFR Mean change from baseline [1, 12]: −0.59 mL/min/1.73 m^2 | Baseline eGFR Mean [1, 13]: 24.22 mL/min/1.73 m^2 | End-of treatment eGFR Mean [1, 13]: 20.23 mL/min/1.73 m^2 | End-of treatment eGFR Mean change from baseline [1, 13]: −3.98 mL/min/1.73 m^2 | mean eGFR at follow-up (in words) ([1]; severe renal impairment, empagliflozin 25 mg, 3-week follow-up visit): increased to a value slightly below baseline | eGFR at week 52 (in words) ([1]; severe renal impairment, empagliflozin 25 mg): small decrease in eGFR | Follow-up eGFR Mean [2, 14]: 86.25 mL/min/1.73 m^2 | Follow-up eGFR Mean change from baseline [2, 14]: 3.06 mL/min/1.73 m^2 | Follow-up eGFR Mean change from last value on treatment [2, 14]: 3.32 mL/min/1.73 m^2 | Baseline eGFR Mean ([2]; Empa 10 mg once daily): 83.01 mL/min/1.73 m^2 | Last value on treatment eGFR Mean ([2]; Empa 10 mg once daily, week 12): 82.70 mL/min/1.73 m^2 | Last value on treatment eGFR Mean change from baseline ([2]; Empa 10 mg once daily, week 12): −0.20 mL/min/1.73 m^2 | Follow-up eGFR Mean [2, 15]: 86.60 mL/min/1.73 m^2 | Follow-up eGFR Mean change from baseline [2, 15]: 2.75 mL/min/1.73 m^2 | Follow-up eGFR Mean change from last value on treatment [2, 15]: 5.54 mL/min/1.73 m^2 | Baseline eGFR Mean ([2]; Empa 25 mg once daily): 83.97 mL/min/1.73 m^2 | Last value on treatment eGFR Mean ([2]; Empa 25 mg once daily, week 12): 81.24 mL/min/1.73 m^2 | Last value on treatment eGFR Mean change from baseline ([2]; Empa 25 mg once daily, week 12): −2.60 mL/min/1.73 m^2 | mean eGFR at follow up (in words) ([2]; empagliflozin 10 and 25 mg, 2-week follow up visit): increased to a value slightly above baseline | eGFR at week 12 (in words) ([2]; empagliflozin 10 and 25 mg, week 12): small decrease in eGFR | eGFR at follow-up Mean [3, 16]: 83.74 | eGFR at follow-up Mean change from baseline [3, 16]: −1.88 | Baseline eGFR Mean [3, 17]: 85.01 | Week 18 eGFR Mean [3, 17]: 80.37 | Week 18 eGFR Mean change from baseline [3, 17]: −4.98 | Week 54 eGFR Mean [3, 17]: 82.55 | Week 54 eGFR Mean change from baseline [3, 17]: −5.68 | Week 78 eGFR Mean [3, 17]: 81.86 | Week 78 eGFR Mean change from baseline [3, 17]: −5.52 | eGFR at follow-up Mean [3, 18]: 81.35 | eGFR at follow-up Mean change from baseline [3, 18]: −0.79 | Baseline eGFR Mean [3, 19]: 82.88 | Week 18 eGFR Mean [3, 19]: 79.11 | Week 18 eGFR Mean change from baseline [3, 19]: −3.48 | Week 54 eGFR Mean [3, 19]: 77.12 | Week 54 eGFR Mean change from baseline [3, 19]: −4.76 | Week 78 eGFR Mean [3, 19]: 77.21 | Week 78 eGFR Mean change from baseline [3, 19]: −5.64 | mean eGFR at follow up (in words) ([3]; T2DM on basal insulin, empagliflozin 10 and 25 mg, 4-week follow up visit): increased to a value slightly below baseline | eGFR on treatment (in words) ([3]; empagliflozin 10 and 25 mg, 78 weeks): small decrease in eGFR | Frequency of patients, last value on-treatment Macroalbuminuria, % [4, 20]: (33.3) % | Frequency of patients, last value on-treatment Microalbuminuria, % [4, 20]: (55.6) % | Frequency of patients, last value on-treatment Normal, % [4, 20]: (11.1) % | Frequency of patients, last value on-treatment Macroalbuminuria, % [4, 21]: (11.1) % | Frequency of patients, last value on-treatment Microalbuminuria, % [4, 21]: (61.1) % | Frequency of patients, last value on-treatment Normal, % [4, 21]: (27.8) % | Frequency of patients, last value on-treatment Microalbuminuria, % [4, 22]: (10.6) % | Frequency of patients, last value on-treatment Normal, % [4, 22]: (89.4) % | Frequency of patients, last value on-treatment Macroalbuminuria, % [4, 23]: (67.1) % | Frequency of patients, last value on-treatment Microalbuminuria, % [4, 23]: (30.1) % | Frequency of patients, last value on-treatment Normal, % [4, 23]: (2.7) % | Frequency of patients, last value on-treatment Macroalbuminuria, % [4, 24]: (3.8) % | Frequency of patients, last value on-treatment Microalbuminuria, % [4, 24]: (72.2) % | Frequency of patients, last value on-treatment Normal, % [4, 24]: (24.1) % | Frequency of patients, last value on-treatment Microalbuminuria, % [4, 25]: (10.6) % | Frequency of patients, last value on-treatment Normal, % [4, 25]: (89.4) % | Urine albumin-to-creatinine ratio, change from baseline, Mean ([4]; Empagliflozin 10 mg, patients Normal (<30 mg/g) at baseline): 4.0 mg/g | Urine albumin-to-creatinine ratio, change from baseline, Mean ([4]; Empagliflozin 10 mg, patients with Macroalbuminuria at baseline): -716.3 mg/g | Urine albumin-to-creatinine ratio, change from baseline, Mean ([4]; Empagliflozin 10 mg, patients with Microalbuminuria at baseline): 7.4 mg/g | Urine albumin-to-creatinine ratio, change from baseline, Mean ([4]; Empagliflozin 25 mg, patients Normal (<30 mg/g) at baseline): 6.0 mg/g | Urine albumin-to-creatinine ratio, change from baseline, Mean ([4]; Empagliflozin 25 mg, patients with Macroalbuminuria at baseline): -799.9 mg/g | Urine albumin-to-creatinine ratio, change from baseline, Mean ([4]; Empagliflozin 25 mg, patients with Microalbuminuria at baseline): -39.4 mg/g | Shifts between UACR categories from macro- or microalbuminuria towards normal and from macro- to microalbuminuria, versus placebo (in words) ([4]; baseline to end of treatment, empagliflozin treatment groups): higher frequency | mean urine albumin/creatinine ratio (in words) ([4]; patients with macroalbuminuria at baseline, empagliflozin groups): decrease in mean urine albumin/creatinine ratio | mean urine albumin/creatinine ratio values (in words) ([4]; empagliflozin 10 mg): remained nearly unchanged | mean urine albumin/creatinine ratio values (in words) ([4]; empagliflozin 25 mg): decreased

CN(C)C(=N)N=C(N)N [metformin]
average improvement in the HbA1c value [5]: 1.0-1.5%
